Patent US20150273088A1 (Board of Regents, The University of Texas System, priority 2014, published 2015)
Values belong to the compound of their own block, whether it stands above or below them.

Experiments:
[1] = test system: HT1080 cells (endogenous IDH1 R132C); assay: 2HG fluorimetric assay / high-throughput screen, secreted 2HG in media; assay type: cell-based, human; settings: for Secreted (extracellular) 2HG: HT1080 cells, 48 hours, fluorescent assay, normalized to viability; for Viability in high-throughput screen (Alamar Blue) / 2HG in high-throughput screen: HT1080, 48 hours; for 2HG in high-throughput screen: screen hits top left quadrant
Experimental: 2HG fluorimetric assay. N-terminal 6×-His tagged PHGDH was expressed and purified from chemically competent BL-21 E. coli using Ni-NTA agarose (Qiagen) (Grant et al., 1999). Purified protein was then dialyzed in 40 mM KPO4 buffer at 4° C. overnight. Conditioned culture media (DMEM or aMEM) containing 2HG was neutralized with 60 mM HCL for 10 minutes followed by 60 mM Tris base. A 20 μL aliquot of neutralized conditioned media was then mixed with 90 μL of optimized assay reaction mix consisting of 5 μg purified PHGDH enzyme, 12.5 μM resazurin (Sigma-Aldrich), 0.125 U/ml diaphorase (Sigma-Aldrich), 1 mM NAD (Sigma-Aldrich), 40 mM Tris-HCl pH 8.8, and incubated for 90 minutes in a 96-well plate. Resorufin fluorescence was then quantified using a FLUOstar™ OPTIMA fluorescence plate reader (BMG Labtech) with excitation and emission peaks of 544 nm and 590 nm, respectively. Measurements were background subtracted (neutralized fresh media) and normalized either to total protein or viability as measured by Alamar Blue (Naik et al., 2009).
High-throughput screening. Screening was carried out using the Beckman Coulter (Fullerton, Calif.) Core Robotics system, including an FX liquid handler, controlled by the Sagian graphical method development tool (SAMI scheduling software). The Institute of Chemistry and Cell Biology (ICCB) Known Bioactives Library (Enzo Lifescience, BML-2840-0100) was diluted 1:200 in αMEM and 50 μL were added to pre-plated HT1080 cells. After 48 hours of incubation, media was removed and 2HG in the media was measured using the fluorimetric assay. Fresh 2HG fluorimetric assay reaction mix was prepared immediately before assaying each screen plate to limit background modulation. Cell viability was determined using Alamar Blue, as described previously (Naik et al., 2009).
To identify screen hits and account for differences in compound toxicity, 2HG fluorescence was first median-centered around DMSO treatment controls within each screen plate. 2HG fluorescence was then plotted against viability such that a correlation between the two measurements could be visualized. A linear fit and 95% predictive interval (P.I.) were then determined and plotted using GraphPad Prism (GraphPad Software).

[2] = test system: D54 glioblastoma cells expressing IDH1 R132H; settings: cited from earlier work
HT1080 cells = assay: GC-MS quantification of 2HG and upstream metabolites in HT1080 cells; assay type: cell-based, human; settings: for Cellular 3-phosphoglycerate (3PG) level: HT1080, 300 μM Zaprinast or 10 μM BPTES
Experimental: (§1) GC-MS analysis. Metabolite extraction from cultured cells was performed as described previously by Figueroa et al. (2010). Briefly, cells were rinsed in ice cold PBS and rapidly quenched with 80% methanol spiked with 3-hydroxy-1,5-pentanedioic-2,2,3,4,4-d5 acid (CDN Isotopes, Quebec Canada) as an internal standard. Extracts were then incubated at −80° C. for 20 minutes, sonicated on ice, centrifuged at 14,000×g for 20 minutes at 4° C. to clear precipitate proteins, and supernatants transferred to vials for drying under N2. Derivatizing reagent (MSTFA (N-methyl-N-(trimethylsilyl)trifluoroacetamide):pyridine:acetonitrile 1:1:2) was added to the vials, which were then heated at 70° C. for 15 minutes.
(§2) Derivatized samples were analyzed on an Agilent 7890A gas chromatograph interfaced to an Agilent 5975C mass spectrometer. The GC column used for the study was a HP-5MS (30 m, 0.25 mm i.d., 0.25 μm film coating). A linear temperature gradient was used. The initial temperature of 80° C. was held for 2 minute and increased to 300° C. at 10° C./minute. The temperature was held at 300° C. for 2 minutes. The samples were run by electron ionization (EI) and the source temperature, electron energy, and emission current were 200° C., 70 eV, and 300 μA, respectively. The injector and transfer line temperatures were 250° C. 3-Hydroxy-1,5-pentanedioic-2,2,3,4,4-d5 acid was used as the internal standard in SIM mode for quantitation of 2-hydroxyglutaric acid. Quantitation was carried out by monitoring the ions at m/z 347 (glutamine and αKG), 348 (glutamate), 349 (2-hydroxyglutaric acid), and 354 (3-hydroxy-1,5-pentanedioic-2,2,3,4,4-d5).

[3] = test system: PDAC cells Panc1 and MiaPaca2; assay: GC-MS of glutamine, glutamate and αKG in PDAC cells; assay type: cell-based; settings: 300 μM, 48 hours
Experimental: as §1, §2

[4] = test system: NHA cells expressing IDH1 R132H; assay: Soft agar colony assay; assay type: cell-based, human; settings: IDH1 R132H astrocytes
Text: Soft agar assay. A bottom layer of 0.6% soft agar with complete DMEM and 10% FBS was set in 6-well plates and allowed to solidify. Approximately 8,000 cells were then suspended in 0.4% soft agar and plated on top. Colonies were allowed to develop over 3-4 weeks and stained with crystal violet.

[5] = test system: NHA cells ectopically expressing R132H IDH1; assay: GC-MS quantification of 2HG and upstream metabolites in NHA cells expressing IDH1 R132H; assay type: cell-based, human; settings: 48 hours
Experimental: as §1
as §2, with “The temperature was held at 300° C. for 2 minutes. The samples were run by electron ionization (EI) and the source temperature, electron energy, and emission current were 200° C., 70 eV, and 300 μA, respectively. The injector and transfer line temperatures were 250° C.” left out

[6] = test system: PDAC cells Panc1 and MiaPaca2; assay: Sensitivity to H2O2, viability by Alamar Blue; assay type: cell-based
Text: (§3) Cell culture, transfection, and generation of stable cell lines. HT1080, HEK293T, Panc1, and MIA PaCa-2 cells were obtained from the American Type Culture Collection (ATCC). Normal human astrocytes (NHA) immortalized with E6/E7/hTERT were a kind gift from Dr. Russell O. Pieper (University of California, San Francisco). All cells tested negative for mycoplasma infection. HT1080 cells were authenticated by genotyping for IDH1 and were confirmed to harbor a heterozygous IDH1 R132C mutation by Sanger sequencing of genomic DNA products. The remaining cell lines were not further authenticated. HEK293T, NHA, PANC-1, and MIA Paca-2 cells were maintained with complete DMEM containing 10% fetal bovine serum (FBS) and 1% penicillin/streptomycin (P/S). HT1080 cells were maintained in αMEM containing 10% FBS and 1% P/S. Glutamine-free DMEM (Life Technologies) was supplemented with 10% FBS and 1% P/S and spiked with varying amounts of L-glutamine (Cellgro) for glutamine growth curves.

[7] = target: T1, purified, full length, human GLS1 (Homo sapiens, UniProt O94925); assay: Glutaminase assay (two-step, purified enzyme); assay type: biochemical
T1 construct: 6xHis (N); made in house; host or cells: E. coli BL-21
T1 sequence (O94925 55-669): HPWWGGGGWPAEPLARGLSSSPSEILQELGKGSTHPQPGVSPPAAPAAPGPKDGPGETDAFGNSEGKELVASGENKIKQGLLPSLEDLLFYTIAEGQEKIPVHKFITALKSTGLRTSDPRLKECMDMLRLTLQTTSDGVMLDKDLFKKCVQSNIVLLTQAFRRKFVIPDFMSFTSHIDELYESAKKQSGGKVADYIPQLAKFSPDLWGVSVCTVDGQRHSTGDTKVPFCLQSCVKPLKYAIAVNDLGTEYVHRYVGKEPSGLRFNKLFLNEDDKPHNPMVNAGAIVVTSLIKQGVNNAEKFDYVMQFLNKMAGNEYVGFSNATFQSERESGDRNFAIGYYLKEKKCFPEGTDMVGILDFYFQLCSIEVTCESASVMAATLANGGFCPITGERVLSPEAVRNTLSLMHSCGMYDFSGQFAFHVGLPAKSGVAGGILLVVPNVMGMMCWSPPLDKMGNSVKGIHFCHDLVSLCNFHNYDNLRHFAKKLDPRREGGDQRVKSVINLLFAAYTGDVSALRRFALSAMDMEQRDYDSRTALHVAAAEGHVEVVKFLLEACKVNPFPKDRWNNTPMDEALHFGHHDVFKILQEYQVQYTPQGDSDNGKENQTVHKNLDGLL
Experimental: Glutaminase assay. N-terminal 6×-His tagged GLS1 was expressed and purified from chemically competent BL-21 E. coli using Ni-NTA agarose beads (Qiagen). Purified protein was then dialyzed in a 50 mM Tris-phosphate buffer containing 1 mM dithiothreitol at 4° C. overnight. A previously described two-step assay was used to measure glutaminase activity (Kenny et al., 2003). […] […] […] For the second step of the assay, 20 μL of completed and quenched initial reaction were transferred to a new plate and 200 μL of secondary reaction mix containing 0.4 mg bovine liver glutamate dehydrogenase (Sigma-Aldrich), 0.09 M Tris-acetate (pH 9.4), 0.2 M hydrazine, 0.25 mM ADP, and 2 mM NAD was added. Samples were incubated for 40 minutes at room temperature and absorbance of NADH (340 nm) was measured using a microplate spectrophotometer.

[8] = test system: NHA cells expressing IDH1 R132H or wild type IDH1; assay: Histone lysine methylation by Western blot in immortalized NHA cells; assay type: cell-based, human
Experimental: Histone extraction and Western blot analysis. For extraction of total cellular protein, cells were lysed in RIPA buffer (150 mM NaCl, 50 mM Tris, 5 mM EDTA, 1% NP-40, 0.1% SDS, 0.5% sodium deoxycholate, pH 7.4), supplemented with protease inhibitor cocktail (Roche), sodium orthovanadate (1 mM), and PMSF (1 mM). Whole-cell lysates were normalized for protein content by BCA assay (Pierce). Histone extraction was performed using an EpiQuik™ Total Histone Extraction Kit (Epigentek) and extracted protein was quantified using a Bradford assay.
Proteins were resolved by SDS-PAGE, transferred to a PVDF membrane and probed with the following antibodies: IDH1 (Origene, TA500610), 6× His (Abcam, ab1187), H3K9Me2 (Cell Signaling, 4658p), H3K9Me3 (Abcam, ab8898), H3K27Me3 (Millipore, 07-449), H3K79Me2 (Cell Signaling, 9757p), total H3 (Cell Signaling, 4499p), and Actin. Secondary anti-mouse and anti-rabbit horseradish peroxidase-conjugated IgG antibodies were used for detection.

[9] = test system: PDAC cells Panc1 and MiaPaca2; assay: Growth of PDAC cells; assay type: cell-based
Text: as §3

[10] = test system: PDAC cells Panc1 and MiaPaca2; assay: ROS quantification (DCFDA); assay type: cell-based; settings: 48 hours
Experimental: ROS quantification. Reactive oxygen species levels in PDAC cells were quantified using 2,7-dichlorofluorescein diacetate (DCFDA). Following 48 hours of drug treatment in a 96-well plate, cells were washed with PBS, stained for 30 minutes at 37° C. with 20 μM DCFDA, and imaged using an InCell Analyzer 1000. A 10× objective was used to collect 16 fluorescent and bright field images per well with a 10% overlap to allow image stitching. Stained cells were then quantified using the GE InCell Investigator software package with Developer Toolbox.

SMILES: Nc1nc2c(nc(Br)n2[C@@H]2O[C@@H]3COP(=O)(O)O[C@H]3[C@H]2O)c(=O)[nH]1 [8-bromo-cGMP]
Secreted (extracellular) 2HG [1]: did not cause a reduction

SMILES: O=C(Cc1ccccc1)Nc1nnc(CCSCCc2nnc(NC(=O)Cc3ccccc3)s2)s1 [BPTES]
2HG levels in D54 cells [2]: unaffected | Growth of D54 cells expressing IDH1 R132H compared to wild type IDH1 [2]: preferentially limits growth | Cellular 3-phosphoglycerate (3PG) level (HT1080 cells): did not cause an elevation

SMILES: COCc1cc(O)c(O)c(O)c1-c1c(COC)cc(O)c(O)c1O [HBDDE]
Viability in high-throughput screen (Alamar Blue) [1]: little effect on viability | 2HG in high-throughput screen [1]: reduced 2HG

SMILES: CCCc1nn(C)c2c(=O)[nH]c(-c3cc(S(=O)(=O)N4CCN(C)CC4)ccc3OCC)nc12 [Sildenafil]
Secreted (extracellular) 2HG [1]: no change

Mode of GLS1 inhibition ([7]; Lineweaver-Burk, with respect to glutamine): noncompetitive inhibitor | IC50 ([7]; purified human GLS1, read-out: IC50, enzymatic activity of GLS1): ~200 µM | Ki ([7]; read-out: Ki, GLS1 kinetic analysis): 220 µM
SMILES: CCCOc1ccccc1-c1nc2nn[nH]c2c(=O)[nH]1 [Zaprinast, 5-(2-propoxyphenyl)-1H-[1,2,3]triazolo[4,5-d]pyrimidin-7(4H)-one]
Viability in high-throughput screen (Alamar Blue) [1]: little effect on viability | 2HG in high-throughput screen [1]: reduced 2HG | Secreted (extracellular) 2HG [1]: concentration-dependent reduction | Concentration required to observe a significant reduction in 2HG ([1]; in cells): 100 to 300 µM | Cellular glutamine [3]: increase | Cellular pool of glutamate [3]: significant reductions | Cellular pool of αKG [3]: significant reductions | Soft agar colony formation [4]: reduced colony formation in IDH1 R132H astrocytes down to the level of vector and wild-type cells | Intracellular 2HG by GC-MS [5]: modulated in a concentration-dependent manner | Pattern of 2HG and upstream metabolite changes ([5]; compared with HT1080): the same pattern of metabolite level changes | Sensitivity to oxidative damage after adding back glutamate ([6]; Zaprinast with 5 mM glutamate): nearly completely abolished the increased sensitivity to oxidative damage | Susceptibility to hydrogen peroxide stress versus vehicle ([6]; cells pretreated with Zaprinast): significantly more susceptible | Cellular 3-phosphoglycerate (3PG) level (HT1080 cells): did not cause an elevation | Cellular alpha-ketoglutarate level (HT1080 cells; HT1080, 48 hours): reduced | Cellular glutamate level (HT1080 cells; HT1080, 48 hours): reduced | Intracellular 2HG by GC-MS (HT1080 cells; HT1080, 48 hours): modulated in a concentration-dependent manner | Intracellular glutamine level (HT1080 cells; HT1080, 48 hours): unaffected | Methylation levels of H3K9Me2 or H3K9Me3 ([8]; IDH1 WT expressing astrocytes, 300 μM): did not produced such a marked reduction | Histone methylation marks (H3K9Me2, H3K9Me3, H3K27Me3, H3K79Me2) ([8]; astrocytes expressing R132H IDH1): marked reduction toward baseline methylation levels | Growth of PDAC cells ([9]; 100 μM and 300 μM Zaprinast): significantly reduced | Growth of PDAC cells with glutamate supplementation ([9]; Zaprinast with 5 mM glutamate): restoration of growth | Reactive oxygen species (DCFDA-positive cells) [10]: increase in reactive oxygen species (ROS) in a concentration-dependent manner

Effect on GLS1 enzymatic activity ([7]; control experiment, 10 mM glutamine): no direct effect
SMILES: Nc1nc2c(ncn2[C@@H]2O[C@@H]3COP(=O)(O)O[C@H]3[C@H]2O)c(=O)[nH]1 [cGMP]
